Laboratory results taken from patent US20260049103A1, “PEPTIDE, AND COMPOSITION THEREOF AND USE THEREOF” (WINKEY TECHNOLOGY USA INC, priority 2023, published 2026).
Non-standard residues stand in square brackets, D forms with d. *: point of attachment. Palmitoyl = CCCCCCCCCCCCCCCC(=O)*; Nle = CCCC[C@H](N)C(=O)O

Assays:
[1] = test system: Human keratinocytes (HaCaT); assay: Cell proliferation assay (MTT) in HaCaT cells; assay type: cell-based; details: FIG. 6; for cell activity / proliferation of HaCaT keratinocytes: 72 h, at low concentrations (tested 6.25, 12.5, 25 ppm)
Excerpt: Thiazolyl blue (MTT), dimethyl sulfoxide (DMSO), DMEM culture medium, fetal bovine serum, and PBS.
(§1) Human keratinocytes (HaCaT) were purchased from the Kunming Cell Bank of China Center for Type Culture Collection under the Chinese Academy of Sciences.
Polypeptide group: Peptide (4), peptide (9), peptide (13) and peptide (20). The test concentrations of all the above samples were 6.25 ppm, 12.5 ppm and 25 ppm.
(§2) Blank control group: PBS.
Positive control group: 2% DMSO.
Cells in good exponential growth phase were taken. A 0.25% trypsin digestion solution was added so that digestion allowed the adherent cells to fall off, counting 1 to 4×10^5 cells/mL, which were prepared into a cell suspension.
The cell suspension was inoculated into a 96-well plate with 200 μL/well, and cultured in a constant-temperature CO2 incubator for 24 h.
After changing the medium, samples of the polypeptide groups, the blank control group and the positive control group were added at 20 μL/well respectively, and incubated in a 5% CO2 incubator at 37° C. for 72 h.
20 μL of 5 mg/mL MTT was added to each well and the incubation was continued in the 5% CO2 incubator at 37° C. for 4 h. The original solution was removed and 150 μL/well of DMSO was added. After shaking the plate on a plate shaker for 5 min, a microplate reader was used to determine the OD value of each well at a wavelength of 570 nm, and the cell viability was calculated.
Cell viability=[OD (test sample well)−OD (zero adjustment well)]/[OD (blank control well)−OD (zero adjustment well)]×100%
The MTT assay is a method of detecting cell survival and growth. The measured OD values are directly proportional to cell viability. The higher the cell viability, the larger the OD value.

filaggrin (FLG) = assay: Filaggrin expression experiment (UV-irradiated HaCaT cells); assay type: cell-based, Human; details: 80 mJ/cm^2 UV, 24 h, 10-50 ppm, compared with UV group, fluorescence staining, FIG. 10
Experimental: as §1
Polypeptide group: Peptide (4), peptide (9), peptide (13) and peptide (20). The test concentrations of all the above samples were 10 ppm and 50 ppm.
as §2
UV group: UV radiation with PBS.
The frozen HaCaT cells were cultured and passaged at a ratio of 1:2 to about the 5th generation, and the cells in better growth were selected as experiment subjects. The cell suspension was taken and inoculated into a 96-well plate at 10^4 cells/well, complete culture medium was added, and the mixture was cultured in a 5% CO2 incubator at 37° C. for 24 h. A UV photoaging model was established when the cells reached approximately 80% confluence. […]
After incubation, the cells were digested, grown on a cell climbing slice for 12 hours and then fixed. The cells were stained using a filaggrin (FLG) detection kit and observed under a fluorescence microscope after staining.
Filaggrin (FLG) is an important molecule that links keratin fibers in the stratum corneum of human skin. […] In this experiment, 80 mJ/cm^2 UV energy was selected for radiation to establish a skin stratum corneum cell model, and the effect of the sample on FLG expression was detected to analyze whether the peptides of the present invention can promote FLG expression.

hyaluronidase = assay: Hyaluronidase inhibition experiment; assay type: biochemical; details: FIG. 11; for hyaluronidase inhibition rate: at 100 ppm; for inhibition of hyaluronidase activity: at the tested concentrations (50 ppm and 100 ppm)
Excerpt: Spectrophotometer, phosphate buffered saline (PBS), hyaluronic acid, and hyaluronidase.
Peptide (13) and peptide (14). The test concentrations of all the above samples were 50 ppm and 100 ppm.
The experiment was divided into four groups: blank control group A1 (PBS+hyaluronidase), enzyme-free blank control group A2 (PBS+solvent without hyaluronidase), sample group B1 (samples to be tested+hyaluronidase), and enzyme-free sample group B2 (samples to be tested+solvent without hyaluronidase). The total reaction volume of each group was the same.
According to the grouping, 100 μL of CaCl2) (2.5 mmol/L) was mixed with 500 μL of hyaluronidase (500 U/mL) or solvent without hyaluronidase, and 20 μL of the mixture was taken and shaken in a 37° C. constant temperature gas bath oscillator for 20 min. The blank control group was added with 20 μL of PBS and shaken in a 37° C. constant temperature gas bath oscillator for 20 min. The sample groups were added with 20 μL of samples at different concentrations and shaken in a 37° C. constant temperature gas bath oscillator for 20 min. The above groups were added with 40 μL of hyaluronic acid and shaken in a 37° C. constant temperature gas bath oscillator for 40 min. 10 μL of acetylacetone solution was added and shaken in a 50° C. constant temperature gas bath oscillator for 10 min, then placed in an oven at 75° C. for 40 min and at 50° C. for 10 min. After the reaction was completed and cooled, the plastic wrap was quickly removed to avoid the generation of water vapor. Then 100 μL of 96% anhydrous ethanol and 10 μL of Ehrlich reagent were added, and the absorbances were measured at 492 nm.
Hyaluronidase can decompose hyaluronic acid in the body, converting it into low-molecular-weight acidic irritant, thereby causing the release of histamine and inducing sensitive symptoms in the body. In addition, the reduction of hyaluronic acid will destroy the skin barrier function, leading to the loss of moisture inside the skin. Therefore, inhibiting the activity of hyaluronidase can achieve the effects of soothing, moisturizing and repairing the skin barrier.

hyaluronic acid = assay: Determination of hyaluronic acid content in HaCaT cells; assay type: cell-based, Human; details: 12.5 ppm, 48 h, compared with blank control, FIG. 9
Experimental: as §1
Polypeptide group: Peptide (4), peptide (13) and peptide (20). The test concentrations of all the above samples were 12.5 ppm.
as §2
A bottle of HaCaT cells in good exponential growth phase was taken. A 0.25% trypsin digestion solution was added so that digestion allowed the adherent cells to fall off, counting 1 to 4×10^6 cells/mL, which were prepared into a cell suspension.
The cells were inoculated into a 6-well plate at 10^5 cells/well, and grouped when the cells reached approximately 80% confluence. […]
After completion of the culture, cells were scraped off using a cell scraper, and 200 μL of RIPA lysis buffer was added to extract proteins. […] The total protein concentration was quantified to 1 mg/mL using the BCA method. […] The OD value of each well was measured in sequence at 570 nm using a microplate reader within 15 min.
Hyaluronic acid is one of the main matrix ingredients of the human skin epidermis and an important component of the skin barrier. […] This experiment measured the effect of the peptide of the present invention on the hyaluronic acid content to determine whether the peptide of the invention can increase the hyaluronic acid content and thus play a role in moisturizing and anti-aging repair.

Compound | hyaluronidase inhibition rate (hyaluronidase) [%] | inhibition of hyaluronidase activity (hyaluronidase) | cell activity / proliferation of HaCaT keratinocytes [1] | hyaluronic acid content (hyaluronic acid) | other results
C[S+](C)[O-] [2% DMSO, dimethyl sulfoxide, reference compound] |  |  |  |  | toxic effect on HaCaT cells (cell viability) ([1]; 72 h incubation, peptides at 6.25, 12.5 and 25 ppm, compared with blank control (PBS)): had a toxic effect on HaCaT cells
Palm-Lys-Val-Lys-Leu-Tyr-NH2 (Palmitoyl-KVKLY-NH2; SMILES CCCCCCCCCCCCCCCC(=O)N[C@@H](CCCCN)C(=O)N[C@H](C(=O)N[C@@H](CCCCN)C(=O)N[C@@H](CC(C)C)C(=O)N[C@@H](Cc1ccc(O)cc1)C(N)=O)C(C)C) [peptide (13)] | 49.40 | inhibited the activity of hyaluronidase |  |  | FLG content / FLG expression (filaggrin (FLG)): optimum technical effect
Palm-Lys-Val-Lys-Leu-Tyr-OH (Palmitoyl-KVKLY-OH; SMILES CCCCCCCCCCCCCCCC(=O)N[C@@H](CCCCN)C(=O)N[C@H](C(=O)N[C@@H](CCCCN)C(=O)N[C@@H](CC(C)C)C(=O)N[C@@H](Cc1ccc(O)cc1)C(=O)O)C(C)C) [peptide (14)] | 40.96 | inhibited the activity of hyaluronidase |  |  | 
Palm-Val-Lys-Leu-Tyr-Gly-Ser-NH2 (Palmitoyl-VKLYGS-NH2; SMILES CCCCCCCCCCCCCCCC(=O)N[C@H](C(=O)N[C@@H](CCCCN)C(=O)N[C@@H](CC(C)C)C(=O)N[C@@H](Cc1ccc(O)cc1)C(=O)NCC(=O)N[C@@H](CO)C(N)=O)C(C)C) [peptide (9)] |  |  | significantly improve cell activity |  | 
Palmitoyl-G[Nle]KLY-NH2 [peptide (4)] |  |  |  | more superior technical effects | 
Palmitoyl-G[Nle]RLY-NH2 [peptide (20)] |  |  | significantly improve cell activity | more superior technical effects | 
